Laboratory results reported in publication PMC5869712 (Scientific Reports, 2018).

Assays:
[1] = tested on: DBA/1 mice with collagen-induced arthritis; assay: Collagen-induced arthritis mouse model: clinical score, histology, safety; format: in vivo; settings: CIA mice; 30 mg/kg; model group 3.8; grades 0-4
Experimental: The animal protocol was approved by the Animal Care and Use Committee of Sichuan University in China (IACUC number: 20100318). DBA/1 J mice (male, 6 weeks old) were obtained from Jackson Laboratory (Bar Harbor, ME). One day before the start of the experiment, CII solution (2 mg/ml) was prepared with 0.05 M acetic acid and stored at 4 °C. Just before the immunization, equal volumes of IFA and CII were mixed by a homogenizer in a precooled glass bottle in an ice water bath. Arthritis was induced in 8-week old male DBA/1 mice by immunizations with a 1:1 emulsion of bovine type II collagen (Chondrex) and Freund’s complete adjuvant (Sigma-Aldrich) on day 0 and with a 1:1 emulsion of bovine type II collagen in Freund’s incomplete adjuvant (Sigma-Aldrich) on day 21. […] On the day treatment was initiated, the mice were randomly assigned to controls (no collagen injection plus vehicle; […]. Mice were scored daily for signs of arthritis for 33 days. CIA development was inspected three times per week, and the inflammation of the four paws was graded from 0 to 4 (grade 0, paws with no swelling or focal redness; grade 1, paws with swelling of finger joints; grade 2, paws with a mild swelling of the ankle or wrist joints; grade 3, paws with severe inflammation of the entire paw; and grade 4, paws with deformity or ankylosis). Each paw was graded, and the four scores were totalled so that the possible maximum score per mouse was 16.
DBA1/J mice were sacrificed on day 33 after treatment and ankle joints were removed and fixed with 4% paraformaldehyde for more than 48 h. The joints were decalcified in EDTA buffer for 21 days and then embedded in paraffin blocks. Joint sections were stained with H&E or safranin O-fast green. Histological changes were examined under microscope using methods modified from McKew et al.[43] as follows: grade 0 = no abnormal findings; grade 1 = synoviocyte hypertrophy, slight synovial membrane fibrosis, slight-to-mild inflammatory cell infiltrates into the synovial membrane/articular capsule and/or joint space; grade 2 = grade 1 plus mild-to-moderate inflammatory cell infiltrates, pannus formation (if present) minimal with superficial cartilage erosion; grade 3 = grade 2 plus marked inflammatory cell infiltrates and fibrosis, mild-to-severe erosion of the cartilage extending into the subchondral bone; and grade 4 = loss of joint integrity through erosion or destruction with bone remodelling, massive inflammatory cell infiltrates, fibrosis, and ankylosis.

[2] = tested on: cytokine gene transcription in joint tissue of CIA mice; assay: Cytokine gene expression in joints of CIA mice by RT-PCR; format: in vivo, mouse

C[C@@H]1CCN(C(=O)CC#N)C[C@@H]1N(C)c1ncnc2[nH]ccc12 [Tofacitinib, reference compound]
group mean histological severity score [1]: 1.8
IL-10 expression [2]: significantly increased its expression
